The values below come from US10508086B2 (CANCER RESEARCH TECHNOLOGY LIMITED, priority 2014, dated 2019).

One assay concerns the target Human Full Length PARG (Homo sapiens (Human), UniProt Q86W56). Kind of assay: PARG in vitro enzyme assay (TR-FRET). Conditions: read-out: PARG_EC50_ENZYME. In kind it is biochemical. The method in brief: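 Full-length human PARG ([…]) incubated with ribosylated PARP substrate (4.5 nM) for 10 min at room temperature in Tris pH 7.4 buffer with EDTA, EGTA, DTT, KCl. Detection by TR-FRET using anti-6HIS XL665 (14 nM final) and streptavidin europium cryptate (0.75 nM final) after 60 min; Em665/Em620 ratio converted to percent inhibition.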

The target in another assay is PARG in HeLa cell line (Homo sapiens (Human), UniProt Q86W56). The assay is described as follows: PARG cell assay (nuclear PAR chains after MMS, immunofluorescence). Conditions: HeLa cells, MMS 50 μg/mL; read-out: PARG Cell IC50 Geomean. In kind it is cell-based. The protocol:
This method is based on the detection of endogenous levels of poly (ADP) ribose chains present in the nucleus of HeLa cell line using indirect immunofluorescence. MMS stimulation increases PAR chains for up to 25 mins. After that point, PARG is active and breaks down the PAR chains, until by one hour after stimulation no PAR chains are detectable. Inhibition of PARG maintains PAR chains.
Briefly, following compound treatment and treatment with the DNA damaging agent methylmethanesulfonate (MMS), the cell monolayer is fixed, then permeabilised and incubated with a mouse monoclonal antibody raised against multimers of poly(ADP) ribose. After an overnight incubation, excess antibody is removed by washing and an Alexafluor 488-linked secondary antibody which recognises the mouse monoclonal is added together with a nuclear stain (Hoechst 33342). Images of the cells are then captured and analysed on a High Content Screening platform and the total intensity of the nuclear fluorescent signal at […] is quantified.
HeLa cells, seeded in 384-well plates, at 4000/well in 30 μL RPMI 1640 media, supplemented with 10% FBS and 2 mM Glutamax, were incubated overnight at 37° C., 5% CO2.
The following day, cells were dosed in quadruplicate with compound (10 point dose response) and incubated for 1 h at 37° C., 5% CO2.
At the end of the 1 h dosing period, MMS was added to duplicates at a final concentration of 50 μg/mL, for a further hour.
Media was tipped off and the cells fixed with 50 μL ice-cold 95% MetOH/PBS for 15 mins at −20° C. Following a PBS wash, 50 μL PBS/0.1% Triton was added to the cells for 20 mins. Following another PBS wash, anti-PAR antibody (Calbiochem AM80) was diluted 1:4000 in a buffer (PBS+0.5% FBS+0.05% Tween20) and added to the cells and incubated overnight at 4° C.
The following day, cells were washed three times with PBS and then incubated for 1 hr with secondary antibody (Alexa Fluor® 488 goat anti mouse IgG (H+L)) diluted 1:1000 and Hoechst diluted 1:5000 in buffer (5% FBS in PBS+0.05% Tween20).
Cells were washed three times with PBS and the plate sealed with a light-proof seal.
Images of the cells were captured on a ThermoFisher Celllnsight and the mean total intensity of spots fluorescent at 485 nm in the nucleus was reported.

Sequence of Human Full Length PARG (Q86W56 whole entry): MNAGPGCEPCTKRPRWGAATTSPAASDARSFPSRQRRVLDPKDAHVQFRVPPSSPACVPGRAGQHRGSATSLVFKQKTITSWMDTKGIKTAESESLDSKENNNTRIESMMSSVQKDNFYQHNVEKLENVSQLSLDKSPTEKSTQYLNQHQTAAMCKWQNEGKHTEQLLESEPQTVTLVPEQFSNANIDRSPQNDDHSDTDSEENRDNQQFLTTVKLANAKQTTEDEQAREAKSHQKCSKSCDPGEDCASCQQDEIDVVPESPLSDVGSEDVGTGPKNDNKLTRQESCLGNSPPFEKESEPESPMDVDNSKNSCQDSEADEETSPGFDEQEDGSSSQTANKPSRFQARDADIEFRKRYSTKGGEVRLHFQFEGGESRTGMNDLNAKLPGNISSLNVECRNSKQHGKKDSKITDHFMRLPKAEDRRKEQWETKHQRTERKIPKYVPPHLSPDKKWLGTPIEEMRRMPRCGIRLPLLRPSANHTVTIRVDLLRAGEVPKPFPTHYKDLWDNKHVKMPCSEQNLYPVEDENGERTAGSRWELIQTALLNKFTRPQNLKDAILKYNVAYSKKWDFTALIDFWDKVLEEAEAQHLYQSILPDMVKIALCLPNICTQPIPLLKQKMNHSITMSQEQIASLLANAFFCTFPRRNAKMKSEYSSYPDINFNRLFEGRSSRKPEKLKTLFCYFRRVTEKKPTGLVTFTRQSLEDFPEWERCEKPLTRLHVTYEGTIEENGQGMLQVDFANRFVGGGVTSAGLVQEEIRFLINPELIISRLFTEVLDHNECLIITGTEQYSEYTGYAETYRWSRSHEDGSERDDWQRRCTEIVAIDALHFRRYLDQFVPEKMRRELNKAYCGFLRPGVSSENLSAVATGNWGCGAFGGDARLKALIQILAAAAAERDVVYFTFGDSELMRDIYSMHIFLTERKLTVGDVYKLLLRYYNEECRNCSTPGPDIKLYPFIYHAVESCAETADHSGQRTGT
Sequence of PARG in HeLa cell line (Q86W56 whole entry): as above

As for `Cc1nnc(-n2c(=O)n(CC3CCCN3C)c3ccc(S(=O)(=O)NC4(C)CC4)cc32)s1` (centres unmarked) [Example 155], at Human Full Length PARG, the EC50 was 0.464 µM. Also, the half-maximal inhibitory concentration (IC50) on PARG in HeLa cell line was 0.166 µM.
With `COCCn1c(=O)n(-c2nnc(C(F)F)s2)c2cc(S(=O)(=O)NC3(C)CC3)ccc21` [Example 169, 3-[5-(Difluoromethyl)-1,3,4-thiadiazol-2-yl]-1-(2-methoxyethyl)-N-(1-methylcyclopropyl)-2-oxo-benzimidazole-5-sulfonamide], at Human Full Length PARG, the EC50 came to 0.355 µM. In addition, the 50% inhibitory concentration (IC50) at PARG in HeLa cell line is 0.036 µM.
The matching figures for `Cn1c(=O)n(-c2ncns2)c2cc(S(=O)(=O)NC3(CF)CC3)ccc21` [Example 175, N-[1-(Fluoromethyl)cyclopropyl]-1-methyl-2-oxo-3-(1,2,4-thiadiazol-5-yl)benzimidazole-5-sulfonamide]: 0.25 µM and 0.551 µM.
For the molecule `CNC(=O)c1noc(Cn2c(=O)n(-c3nnc(C)o3)c3cc(S(=O)(=O)NC4(C)CC4)ccc32)n1` [Example 117], the EC50 at Human Full Length PARG came to 0.275 µM. For the same molecule, on PARG in HeLa cell line, the IC50 came to 24.7 µM.
With `Cc1nsc(-n2c(=O)n(C)c3cc(F)c(S(=O)(=O)NC4(CF)CC4)cc32)n1` [Example 172, 6-Fluoro-N-[1-(fluoromethyl)cyclopropyl]-1-methyl-3-(3-methyl-1,2,4-thiadiazol-5-yl)-2-oxo-benzimidazole-5-sulfonamide], the EC50 at Human Full Length PARG was 12 µM. In addition, the IC50 at PARG in HeLa cell line is 2.09 µM.
The matching figures for `CCn1c(=O)n(-c2nnc(C)s2)c2cc(S(=O)(=O)NC3(CF)CC3)ccc21` [Example 159, 1-Ethyl-N-[1-(fluoromethyl)cyclopropyl]-3-(5-methyl-1,3,4-thiadiazol-2-yl)-2-oxo-benzimidazole-5-sulfonamide]: 0.59 µM and 0.349 µM.
On the same counts, the results for `COCCn1c(=O)n(-c2nnc(C(F)F)s2)c2cc(S(=O)(=O)NC3(CF)CC3)c(F)cc21` [Example 167, 3-[5-(Difluoromethyl)-1,3,4-thiadiazol-2-yl]-6-fluoro-N-[1-(fluoromethyl)cyclopropyl]-1-(2-methoxyethyl)-2-oxo-benzimidazole-5-sulfonamide] are 0.074 µM and 0.046 µM.
On the same counts, the results for `Cn1c(=O)n(-c2nnc(C(F)F)o2)c2cc(S(=O)(=O)NC3(C)CC3)ccc21` [Example 195, 3-[5-(Difluoromethyl)-1,3,4-oxadiazol-2-yl]-1-methyl-N-(1-methylcyclopropyl)-2-oxo-benzimidazole-5-sulfonamide] are 1.01 µM and 0.457 µM.
On to `COCCn1c(=O)n(-c2nnc(C(F)F)s2)c2cc(S(=O)(=O)NC3(C#N)CC3)ccc21` [Example 162, N-(1-Cyanocyclopropyl)-3-[5-(difluoromethyl)-1,3,4-thiadiazol-2-yl]-1-(2-methoxyethyl)-2-oxo-benzimidazole-5-sulfonamide], for which the EC50 at Human Full Length PARG was 0.26 µM. On PARG in HeLa cell line, the 50% inhibitory concentration (IC50) is 0.176 µM.
On the same counts, the results for `CC1(NS(=O)(=O)c2cc3c(cc2F)n(CCF)c(=O)n3-c2nnc(C(F)F)s2)CC1` [Example 217, 3-[5-(Difluoromethyl)-1,3,4-thiadiazol-2-yl]-6-fluoro-1-(2-fluoroethyl)-N-(1-methylcyclopropyl)-2-oxo-benzimidazole-5-sulfonamide] are 0.156 µM and 0.036 µM.
The matching figures for `COCCCn1c(=O)n(-c2nnc(C)s2)c2cc(S(=O)(=O)NC3(C)CC3)ccc21` [Example 148]: 0.373 µM and 0.238 µM.
With `Cc1nnc(-n2c(=O)n(CCF)c3ccc(S(=O)(=O)NC4(C)CC4)cc32)o1` [Example 191, 1-(2-Fluoroethyl)-N-(1-methylcyclopropyl)-3-(5-methyl-1,3,4-oxadiazol-2-yl)-2-oxo-benzimidazole-5-sulfonamide], the EC50 at Human Full Length PARG stood at 0.967 µM. For the same molecule, the half-maximal inhibitory concentration (IC50) at PARG in HeLa cell line turned out to be 0.807 µM.
The matching figures for `Cc1nsc(-n2c(=O)n(CCN(C)C)c3ccc(S(=O)(=O)NC4(CF)CC4)cc32)n1` [Example 186, 1-[2-(Dimethylamino)ethyl]-N-[1-(fluoromethyl)cyclopropyl]-3-(3-methyl-1,2,4-thiadiazol-5-yl)-2-oxo-benzimidazole-5-sulfonamide]: 4.23 µM and 3.12 µM.
As to `Cc1nnc(-n2c(=O)n(C)c3cc(F)c(S(=O)(=O)NC4(C)CC4)cc32)o1` [Example 197, 6-Fluoro-1-methyl-N-(1-methylcyclopropyl)-3-(5-methyl-1,3,4-oxadiazol-2-yl)-2-oxo-benzimidazole-5-sulfonamide], the EC50 at Human Full Length PARG turned out to be 0.759 µM. Besides, the IC50 on PARG in HeLa cell line was 0.538 µM.
`Cc1nnc(-n2c(=O)n(CCN3CCOCC3)c3ccc(S(=O)(=O)NC4(C)CC4)cc32)s1` [Example 152]: at Human Full Length PARG, the EC50 is 0.275 µM. Moreover, the IC50 on PARG in HeLa cell line was 0.194 µM.
On the same counts, the results for `COCCn1c(=O)n(-c2ccc(C)nn2)c2cc(S(=O)(=O)NC3(CF)CC3)c(F)cc21` [Example 203, 6-Fluoro-N-[1-(fluoromethyl)cyclopropyl]-1-(2-methoxyethyl)-3-(6-methylpyridazin-3-yl)-2-oxo-benzimidazole-5-sulfonamide] are 4.83 µM and 3.7 µM.
On the same counts, the results for `Cc1nnc(-n2c(=O)n(CC#N)c3ccc(S(=O)(=O)NC4(C)CC4)cc32)s1` [Example 166, 1-(Cyanomethyl)-N-(1-methylcyclopropyl)-3-(5-methyl-1,3,4-thiadiazol-2-yl)-2-oxo-benzimidazole-5-sulfonamide] are 0.784 µM and 0.291 µM.
The matching figures for `Cc1ccc(Cn2c(=O)n(-c3nnc(C)s3)c3cc(S(=O)(=O)NC4(C)CC4)ccc32)o1` [Example 103]: 0.284 µM and 0.221 µM.
As to `Cc1cc(Cn2c(=O)n(-c3nnc(C(F)F)s3)c3cc(S(=O)(=O)NC4(C#N)CC4)ccc32)n(C)n1` [Example 165, N-(1-Cyanocyclopropyl)-3-[5-(difluoromethyl)-1,3,4-thiadiazol-2-yl]-1-[(2,5-dimethylpyrazol-3-yl)methyl]-2-oxo-benzimidazole-5-sulfonamide], the EC50 at Human Full Length PARG is 0.234 µM. Besides, the 50% inhibitory concentration (IC50) at PARG in HeLa cell line was 0.127 µM.
The matching figures for `Cn1c(=O)n(-c2nnc(C(F)F)s2)c2cc(S(=O)(=O)NC3(C)CC3)c(F)cc21` [Example 173, 3-[5-(Difluoromethyl)-1,3,4-thiadiazol-2-yl]-6-fluoro-1-methyl-N-(1-methylcyclopropyl)-2-oxo-benzimidazole-5-sulfonamide]: 0.141 µM and 0.064 µM.
On the same counts, the results for `CCn1c(=O)n(-c2nnc(C)s2)c2cc(S(=O)(=O)NC3(C#N)CC3)ccc21` [Example 158, N-(1-Cyanocyclopropyl)-1-ethyl-3-(5-methyl-1,3,4-thiadiazol-2-yl)-2-oxo-benzimidazole-5-sulfonamide] are 1.04 µM and 0.486 µM.
Regarding `Cc1nnc(-n2c(=O)n(C)c3cc(F)c(S(=O)(=O)NC4(C)CC4)cc32)s1` [Example 116, 6-Fluoro-1-methyl-N-(1-methylcyclopropyl)-3-(5-methyl-1,3,4-thiadiazol-2-yl)-2-oxo-benzimidazole-5-sulfonamide], on Human Full Length PARG, the EC50 worked out at 0.245 µM. The IC50 on PARG in HeLa cell line was found to be 0.197 µM.
Turning to `Cc1nnc(-n2c(=O)n(CC3CCCCN3C)c3ccc(S(=O)(=O)NC4(C)CC4)cc32)s1` (centres unmarked) [Example 143], at Human Full Length PARG, the EC50 worked out at 0.441 µM. Besides, the IC50 on PARG in HeLa cell line stood at 0.343 µM.
The matching figures for `Cc1nnc(-n2c(=O)n(CCF)c3cc(F)c(S(=O)(=O)NC4(C)CC4)cc32)o1` [Example 198, 6-Fluoro-1-(2-fluoroethyl)-N-(1-methylcyclopropyl)-3-(5-methyl-1,3,4-oxadiazol-2-yl)-2-oxo-benzimidazole-5-sulfonamide]: 0.419 µM and 0.297 µM.
On the same counts, the results for `COCCn1c(=O)n(-c2nnc(C(F)F)s2)c2cc(S(=O)(=O)NC3(C)CC3)c(F)cc21` [Example 168, 3-[5-(Difluoromethyl)-1,3,4-thiadiazol-2-yl]-6-fluoro-1-(2-methoxyethyl)-N-(1-methylcyclopropyl)-2-oxo-benzimidazole-5-sulfonamide] are 0.099 µM and 0.032 µM.

For orientation: IC50 means the concentration at which inhibition is half-maximal.
